According to US20260234180A1, “AMINO ACID DERIVATIVE, PREPARATION METHOD THEREFOR, AND PHARMACEUTICAL COMPOSITION FOR TREATING HEPATITIS, COMPRISING SAME” (priority 2021, published 2026):

Molecular target: T1, NTCP, HepG2-hNTCP-C4 cell line (Homo sapiens, UniProt Q14973)
T1 construct: expressed in transfected cells; host or cells: HepG2-hNTCP-C4 (HepG2 cells expressing human NTCP)
T1 sequence (Q14973 1-349): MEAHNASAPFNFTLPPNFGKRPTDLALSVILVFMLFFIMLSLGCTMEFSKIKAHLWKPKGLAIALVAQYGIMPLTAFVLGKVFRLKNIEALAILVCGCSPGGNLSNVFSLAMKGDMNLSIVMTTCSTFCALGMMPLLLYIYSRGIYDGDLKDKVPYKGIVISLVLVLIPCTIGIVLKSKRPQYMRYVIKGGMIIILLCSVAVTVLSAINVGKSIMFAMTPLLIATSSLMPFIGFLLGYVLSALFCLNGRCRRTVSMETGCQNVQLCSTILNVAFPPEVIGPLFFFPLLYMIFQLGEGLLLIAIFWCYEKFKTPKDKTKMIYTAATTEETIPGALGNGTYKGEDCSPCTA
Test: Inhibition of binding of fluorescent-labeled PreS1 peptide, fluorescence imaging
Settings: 10 M and 50 PM; compared to the HBV-induced group solely treated with PreS1
Experimental: Specifically, after placing a cover slip coated with fibronectin on a 24 well plate, a HepG2-hNTCP-C4 cell line, which is a cell line expressing NTCP, was seeded at a density of 1×10^5, followed by incubation overnight. Thereafter, 20 nM PreS1 and the compounds in Examples 1, 8, 9, and 44 were treated by diluting in culture media at 4° C. at a concentration of 50 μM, respectively. After 2 hours, the media were suctioned, followed by washing twice with 4° C. PBS, fixation with 4% paraformaldehyde for 20 minutes, and washing twice with 4° C. PBS. Thereafter, 300 nM 4′,6-diamidino-2-phenylindole (DAPI) was treated to stain the nucleus for 20 minutes, and then washing was followed once with distilled water (DW) and twice with 4° C. PBS. Subsequently, 10 μl of mounting media was loaded onto a slide glass, and a cover slip was placed thereon for observation under a fluorescence microscope.
Green fluorescence may be observed when PreS1 binds to a cell line expressing NTCP by FITC conjugated to PreS1.

SMILES | binding between PreS1 and NTCP (green fluorescence imaging)
CC[C@@H](C)[C@H](NC(=O)CC[C@@H](C)[C@H]1CC[C@H]2[C@@H]3CC[C@@H]4C[C@H](O)CC[C@]4(C)[C@H]3CC[C@]12C)C(=O)O [Example 1, (2S,3R)-2-((R)-4-((3R,5R,8R,9S,10S,13R,14S,17R)-3-hydroxy-10,13-dimethyl-hexadecahydro-1H-cyclopenta[a]phenanthren-17-yl)pentanamido)-3-methylpentanoic acid] | inhibited in a concentration dependent manner
CC[C@@H](C)[C@H](NC(=O)CC[C@@H](C)[C@H]1CC[C@H]2[C@@H]3[C@@H](O)C[C@@H]4C[C@H](O)CC[C@]4(C)[C@H]3CC[C@]12C)C(=O)O [Example 2, (2S,3R)-2-((R)-4-((3R,5S,7S,8R,9S,10S,13R,14S,17R)-3,7-dihydroxy-10,13-dimethyl-hexadecahydro-1H-cyclopenta[a]phenanthren-17-yl)pentanamido)-3-methylpentanoic acid] | inhibited in a concentration dependent manner
CC(C)[C@H](NC(=O)CC[C@@H](C)[C@H]1CC[C@H]2[C@@H]3[C@@H](O)C[C@@H]4C[C@H](O)CC[C@]4(C)[C@H]3CC[C@]12C)C(=O)O [Example 3, (S)-2-((R)-4-((3R,5S,7S,8R,9S,10S,13R,14S,17R)-3,7-dihydroxy-10,13-dimethyl-hexadecahydro-1H-cyclopenta[a]phenanthren-17-yl)pentanamido)-3-methylbutanoic acid] | inhibited in a concentration dependent manner
CC(C)[C@H](NC(=O)CC[C@@H](C)[C@H]1CC[C@H]2[C@@H]3CC[C@@H]4C[C@H](O)CC[C@]4(C)[C@H]3CC[C@]12C)C(=O)O [Example 44, (S)-2-((R)-4-((3R,5R,8R,9S,10S,13R,14S,17R)-3-hydroxy-10,13-dimethyl-hexadecahydro-1H-cyclopenta[a]phenanthren-17-yl)pentanamido)-3-methylbutanoic acid] | inhibited in a concentration dependent manner
